From paper PMC4841451 (Journal of medicinal chemistry, 2016) come the findings set out here.

Experiment [1] concerns pAkt (PI3K activity) in A549 and D54 cells. Nature of the experiment: Western blot of pAKT in cultured tumor cells. The experiment is classed as cell-based, human. The note with it: 1 h treatment; for PI3K activity, level of pAKT (Western blot): cultured A549 cells; for PI3K inhibition in cells (Western blot): both cell lines (A549, D54).
The subject of a further experiment is D54 glioma cells. Nature of the experiment: Cell viability, AlamarBlue assay, D54. In kind it is cell-based. The following applies: 48 h. A general note: The colour change of resazurin is a common sign of viable cells or microbes.
In experiment [2] the test system is tumor ERK1/2 phosphorylation. Put plainly: In vivo MEK1 inhibition in tumor bearing mice.
Experiment [3] deals with tumor Akt phosphorylation. Nature of the experiment: In vivo PI3K inhibition in tumor bearing mice.
Experiment [4] concerns pErk1/2 (MEK1 activity) in A549 and D54 cells. Nature of the experiment: Western blot of pERK1/2 in cultured tumor cells. The note with it: both cell lines (A549, D54), 1 h treatment. The experiment is classed as cell-based, human. For orientation: In western blotting, separated proteins are transferred to a membrane and probed.
A further experiment deals with A549 lung tumor cells. Nature of the experiment: Cell viability, AlamarBlue assay, A549. The experiment is classed as cell-based, human. The note with it: 48 h.
The mark [5] stands for this setting: preliminary experiment, A549 and D54 tumors, data not shown.
[6] abbreviates: 375 mg/kg oral gavage, 2 h prior to sacrifice, D54 and A549 flank tumors.

`O=C(CNCCONC(=O)c1ccc(F)c(F)c1Nc1ccc(I)cc1F)NCCCCCC(=O)N1CCN(c2nc(N3CCOCC3)nc(-n3c(C(F)F)nc4ccccc43)n2)CC1` [Compound 7, N-(2-((2-((6-(4-(4-(2-(Difluoromethyl)-1H-benzo[d]imidazol-1-yl)-6-morpholino-1,3,5-triazin-2-yl)piperazin-1-yl)-6-oxohexyl)amino)-2-oxoethyl)amino)ethoxy)-3,4-difluoro-2-((2-fluoro-4-iodophenyl)amino)benzamide]: in experiment [1], the “PI3K activity, level of pAKT (Western blot)” value (from here on “PI3K activity, level of pAKT”) is “high potency”.
Consider `O=C(NOCCNCCCCCC(=O)N1CCN(c2nc(N3CCOCC3)nc(-n3c(C(F)F)nc4ccccc43)n2)CC1)c1ccc(F)c(F)c1Nc1ccc(I)cc1F` [Compound 9, N-(2-((6-(4-(4-(2-(Difluoromethyl)-1H-benzo[d]imidazol-1-yl)-6-morpholino-1,3,5-triazin-2-yl)piperazin-1-yl)-6-oxohexyl)amino)ethoxy)-3,4-difluoro-2-((2-fluoro-4-iodophenyl)amino)benzamide], for which the cell viability entry in the experiment with D54 glioma cells is “as effective as the combination of ZSTK474 and PD0325901”. In experiment [2] (setting [5]), the “ERK1/2 levels in mouse tumors” value was “modulation”. In experiment [1], the “PI3K inhibition in cells (Western blot)” value is recorded as “most pronounced” and the “PI3K activity, level of pAKT” value was “high potency”. Further, the “pAkt levels in mouse tumors” value in experiment [3] (setting [5]) is listed as “modulation”. Also, in experiment [4], the “inhibition of MEK activity in cells (Western blot)” value was “most pronounced”. Moreover, the cell viability entry in the experiment with A549 lung tumor cells is “as effective as the combination of ZSTK474 and PD0325901”.
Consider `O=C(NOCCOCCOCCOCCN1CCN(c2nc(N3CCOCC3)nc(-n3c(C(F)F)nc4ccccc43)n2)CC1)c1ccc(F)c(F)c1Nc1ccc(I)cc1F` [Compound 14, N-(2-(2-(2-(2-(4-(4-(2-(Difluoromethyl)-1H-benzo[d]imidazol-1-yl)-6-morpholino-1,3,5-triazin-2-yl)piperazin-1-yl)ethoxy)-ethoxy)ethoxy)ethoxy)-3,4-difluoro-2-((2-fluoro-4-iodophenyl)amino)benzamide], for which the cell viability result with D54 glioma cells is “as effective as the combination of ZSTK474 and PD0325901”. Moreover, in experiment [2] (setting [6]), the “phosphorylation of ERK1/2 in excised tumor tissue” value is reported as “inhibited”. In addition, in experiment [1], the “PI3K inhibition in cells (Western blot)” value is listed as “most pronounced” and the “PI3K activity, level of pAKT” value is given as “high potency”. The “phosphorylation of Akt in excised tumor tissue” value in experiment [3] (setting [6]) was “inhibited”. The “inhibition of MEK activity in cells (Western blot)” value in experiment [4] is listed as “most pronounced”. Moreover, the cell viability result in the experiment with A549 lung tumor cells was “as effective as the combination of ZSTK474 and PD0325901”.
